The test system of test [1] is Rat carrageenin pedal edema. The experiment in a line: Rat carrageenin pedal edema inhibitory activity. Type of test: in vivo, rat (Jcl: SD). The settings on record: Rattus norvegicus, po, 3 h, 50 mg/kg, orally, 3 hours after carrageenin; read-out: Inhibitory percentage (carrageenin pedal edema). The procedure, abridged: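 Male Jcl:SD rats (6 weeks, 160-220 g) received test compound orally as a 5% gum arabic suspension, topped up with water to 5 ml/rat. One hour later 0.05 ml of 1% carrageenin was injected subcutaneously into the right hind foot pad. Edema volume was the foot volume increase 3 hours post-injection.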
A general note: The carrageenan paw model is a standard test of acute inflammation.

The test system of test [2] is ART (antigen-responding T-cell). The experiment in a line: In vitro ART (antigen-responding T-cell) proliferation test. The settings on record: Rattus norvegicus, T-cell, read-out: % Inhibition of ART growth. The class given is cell-based, Lewis rat.
The subject of a further test is ICAM-1. The experiment in a line: Adhesion protein expression inhibitory activity, ICAM-1. Type of test: cell-based. The settings on record: human umbilical vascular endothelial cells, TNF-α, 360 min. The procedure:
(§1) Adhesion Protein Expression Inhibitory Activity The various concentrations of test compounds were added to the human umbilical cord-derived vascular endothelial cells [sold by Klabo] which were seeded in the gelatin coat plate and the mixture was incubated at 37° C. for 15 minutes. Then, the human tumor necrosis factor-α[TNF-α; sold by Genzyme] was added therein to the final concentration of 1 ng/ml and incubation was carried out at 37° C. for 3 hours for expression of ELAM-1 and for 6 hours for that of ICAM-I. After the reaction, the cells were fixed using glutaraldhyde and the expression amount of ELAM-1 and ICAM-1 was measured by the cell-ELISA method. That is, the expression was determined by […] the adhesion proteins on the cells in the system using anti-ELAM-1 antibody BBA-2 and anti-ICAM-1 antibody BBA4 as the first antibody as well as horseradish peroxidase-labeled rabbit anti-mouse IgG antibody as the second antibody.

Test [3] has as its system brewer's yeast induced pyrexia. As to the kind of experiment: Antipyretic activity (brewer's yeast induced pyrexia). The class given is in vivo, rat (DS line). The note with it: orally; for Antipyretic activity, .increment. °C.: at peak time. In outline: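 Male DS rats (7 weeks, 200-240 g) made febrile by s.c. 15% brewer's yeast 18 h before dosing; only animals at ≥38.5° C used. Compound given orally versus solvent control, with rectal temperature taken by thermistor hourly for 5 h post-dose.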

For test [4], the system named is PAF induced respiratory tract constriction. The experiment in a line: PAF induced respiratory tract constriction inhibitory activity. The settings on record: intravenously. The class given is in vivo, guinea pig (Hartley). The source says:
PAF Induced Respiratory Tract Constriction Inhibitory Activity Male and female Hartley guinea pigs, weighing about 100 g, were used. The guinea pigs were fixed at a dorsal position under urethane anethesia (1.5 g/kg, i.p.). One leg of a cannula (having four legs) was inserted in the trachea and two of the other three legs were bound to the respirator (Harvard apparatus rodent respirator). The remaining one leg (side branch) was bound to the bronchospasm transducer 7.020 (Ugobasile). Under the conditions of 5 to 7 ml of air supply/time, 70 times/min. of supply time and 10 cm H2 O of pulmonary pressure load, the amount of over flow air was recorded on a Rectigraph (Rectigraph-8S, Saneissoki) via the transducer. After Gallamine […] treatment (1 mg/kg, i.v.), PAF was administered intravenously (1.0 μg/kg) and the maximum respiratory tract constriction response was observed after 30 seconds. Under these conditions, the inhibitory activity of the test compounds were examined.

In another test the target is T1, cyclooxygenase (Rattus norvegicus, UniProt Q63921).
T1 construct: from tissue; host or cells: platelets in platelet-rich plasma from rat abdominal aorta blood (Jcl:wistar, male)
T1 sequence (Q63921 27-602): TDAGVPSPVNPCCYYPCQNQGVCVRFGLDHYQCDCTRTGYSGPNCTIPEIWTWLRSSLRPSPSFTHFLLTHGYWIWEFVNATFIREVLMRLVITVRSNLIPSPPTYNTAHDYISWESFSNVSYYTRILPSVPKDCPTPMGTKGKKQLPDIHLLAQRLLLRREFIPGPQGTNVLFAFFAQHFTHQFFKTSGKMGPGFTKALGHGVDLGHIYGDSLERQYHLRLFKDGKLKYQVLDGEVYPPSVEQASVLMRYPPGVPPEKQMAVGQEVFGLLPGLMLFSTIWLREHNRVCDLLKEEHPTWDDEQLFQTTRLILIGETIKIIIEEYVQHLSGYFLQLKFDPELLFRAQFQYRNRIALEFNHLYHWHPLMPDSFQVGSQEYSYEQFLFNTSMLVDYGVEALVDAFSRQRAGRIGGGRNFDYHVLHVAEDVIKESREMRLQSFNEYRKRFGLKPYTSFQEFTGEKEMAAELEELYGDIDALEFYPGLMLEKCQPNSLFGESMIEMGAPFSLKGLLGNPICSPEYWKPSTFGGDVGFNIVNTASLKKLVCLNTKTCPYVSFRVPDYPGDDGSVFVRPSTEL
As to the kind of experiment: Cyclooxygenase inhibitory activity (HHT formation from arachidonic acid in rat platelet-rich plasma). The class given is cell-based, rat (Jcl:wistar).

Test [5] concerns Mouse acetic acid writhing. As to the kind of experiment: Mouse acetic acid writhing inhibitory activity. The class given is in vivo, mouse (Slc: ICR). The note with it: Mus musculus, po, 20 min, orally, read-out: Inhibitory percentage (acetic acid writhing). As for the experimental part: Mouse Acetic Acid Writhing Inhibitory Activity
Ten male Slc: ICR mice, 4 weeks old, per 1 group were used. A test compound was administered orally, and after 30 minutes, 0.1 ml/10 g body weight of physiological saline containing 0.6% acetic acid was injected intraperitoneally. For 20 minutes, writhing (in agony condition) response by administration of acetic acid was counted regarding individual animals. The inhibitory percentage relative to the mean response counts of a control group was calculated regarding respective animals in a test compound administration group. The test compound was suspended in 5% gum arabic solution, and the administration volume was 0.2 ml/10 g.
On the technique in general: Writhing tests count abdominal constrictions after an irritant is injected.

The subject of another test is ELAM-1. The experiment in a line: Adhesion protein expression inhibitory activity, ELAM-1. Type of test: cell-based. The note with it: 13 μM, human umbilical vascular endothelial cells, TNF-α; 180 min. The procedure:
as §1

In test [6] the test system is acute renal failure induced by renal ischemia followed by reperfusion in rats. The experiment in a line: Effect on acute renal failure induced by renal ischemia-reperfusion. Type of test: in vivo, rat (Sprague-Dawley). The note with it: 50 mg/kg, orally, 20 hours of reperfusion. The procedure:
Effect On Acute Renal Failure Induced By Renal Ischemia-Reperfusion Male Sprague-Dawley rats (6 to 7 weeks old) were anesthetized using pentobarbital sodium (50 mg/kg, i.p.) and bilateral renal arteries were completely occluded for 45 minutes followed by reperfusion. After 20 hours of the reperfusion, the blood was collected from the abdominal aorta under anesthesia and the blood urea nitrogen (BUN) was determined.

As to `O=c1c2ccccc2oc(=S)n1CCCSc1ccncc1` [Example 141, 3-[3-(4-pyridylthio)propyl]-2H-1,3-benzoxadine-2-thion-4(3H)-one], the inhibition in vivo at 50 mg/kg in test [1] turned out to be 36%. Also, the inhibition at 1 µM in test [2] is -21%. For the same molecule, the inhibition at 10 µM in test [2] is 64%. Besides, the figures for the “Expression Inhibitory Potency, ICAM-1” value with ICAM-1 (3 μM) and in the test on ICAM-1 (30 μM) were 21% and 54%, respectively. For the same molecule, the “Antipyretic activity, peak time” value in test [3] (12.5 mg/kg) and in [3] (50 mg/kg) was 3 h throughout. For the same molecule, the entries for the “Antipyretic activity, .increment. °C.” value in test [3] (12.5 mg/kg) and in test [3] (50 mg/kg) were -1.60 °C and -2.40 °C, respectively. The “Inhibitory activity (PAF induced respiratory tract constriction)” value (from here on “Inhibitory activity”) in [4] (3 mg/kg) is given as 51.7%.
`O=c1c2ccccc2n(CCCCSc2ccncc2)c(=O)n1CCCCSc1ccncc1` [Example 147, 1,3-bis[4-(4-pyridylthio)butyl]quinazolin-2,4(1H,3H)-dione] gave a half-inhibitory concentration (IC50) on cyclooxygenase of 1800 nM. Moreover, in [2], the inhibition at 1 µM turned out to be 9% and the inhibition at 10 µM is 72%. For the same molecule, the “Expression Inhibitory Potency, ICAM-1” value with ICAM-1 (13 μM) is listed as 83%. In test [5], the inhibition in vivo at 50 mg/kg worked out at 46%. Also, the “Expression Inhibitory Potency, ELAM-1” value in the test with ELAM-1 came out at 96%. Also, the “Inhibitory activity” value in test [4] (3 mg/kg) worked out at 50.7%.
As to `O=C1SC(=Cc2cccs2)C(=O)N1CCCCSc1ccncc1` [Example 157, 4-[4-[5-(2-thienylmethylene)-2,4-thiazolidinedione]butylthio]pyridine], in test [2], the inhibition at 1 µM was -50% and the inhibition at 10 µM came out at 62%. Also, in the test on ICAM-1 (30 μM), the “Expression Inhibitory Potency, ICAM-1” value was determined as 78%. For the same molecule, the Blood urea nitrogen in [6] was determined as 62.4 ± 7.0 mg/dL.
With `O=c1c2ccccc2oc(=S)n1CCCCSc1ccncc1` [Example 162, 3-[4-(4-pyridylthio)butyl]-2H-1,3-benzoxadine-2-thion-4(3H)-on], in [1], the inhibition in vivo at 50 mg/kg was 34%. For the same molecule, in test [2], the inhibition at 1 µM was -31% and the inhibition at 10 µM is -54%. Also, the “Inhibitory activity” value in test [4] (3 mg/kg) is 39.8%.
In the case of `Cl.Cl.O=c1c2ccccc2n(CCCCSc2ccncc2)c(=S)n1CCCCSc1ccncc1` [Example 200, 1,3-bis[4-(4-pyridylthio)butyl]quinazoline-2(1H)-thion-4(3H)-one dihydrochloride], the “Expression Inhibitory Potency, ICAM-1” value with ICAM-1 (13 μM) is given as 83%. For the same molecule, in the test on ELAM-1, the “Expression Inhibitory Potency, ELAM-1” value is listed as 71%. The “Inhibitory activity” value in [4] (10 mg/kg) stood at 61.4%.

The inhibition is the change of the read-out against control, counted positive when it falls. Usually IC50 stands for the concentration at which inhibition is half-maximal.

The values above are taken from patent publication US5457106A, “Pyridine derivatives, their production and use” (Takeda Chemical Industries, Ltd., priority 1991, dated 1995).
